In patent US10172843B2, “Piperidine derivatives” (Hoffmann-La Roche Inc., priority 2014, dated 2019):
Where two headings read alike, the source gives them in different places.

Molecular target: human Cat S (Homo sapiens (Human), UniProt P25774)
Assay: Cathepsin enzyme inhibition assay (fluorogenic peptide substrate)
Format: biochemical
Conditions: read-out: CatS IC50
Protocol: Cathepsin Enzyme Inhibition Assay
Enzyme activity is measured by observing the increase in fluorescence intensity caused by cleavage of a peptide substrate containing a fluorophore whose emission is quenched in the intact peptide.
Assay buffer: 100 mM potassium phosphate pH 6.5, EDTA-Na 5 mM, Triton X-100 0.001%, DTT 5 mM.
Enzymes (all at 1 nM): human and mouse Cathepsin S, Cat K, Cat B, Cat L.
Substrate ([…], except for Cat K which uses Z-Leu-Arg-AMC (both from Bachem).
Excitation 360 nm, Emission 465 nm.
Enzyme is added to the substance dilutions in 96-well microtitre plates and the reaction is started with substrate. […] IC50 are calculated by standard methods.
Inhibition of human Cat S, mouse Cat S, human Cat K, mouse Cat K, human Cat B, mouse Cat B, human Cat L and mouse Cat L have been measured separately.

[1] = human Cat S, enzyme 1 nM, substrate Z-Val-Val-Arg-AMC, pH 6.5

human Cat S, sequence (P25774 115-331): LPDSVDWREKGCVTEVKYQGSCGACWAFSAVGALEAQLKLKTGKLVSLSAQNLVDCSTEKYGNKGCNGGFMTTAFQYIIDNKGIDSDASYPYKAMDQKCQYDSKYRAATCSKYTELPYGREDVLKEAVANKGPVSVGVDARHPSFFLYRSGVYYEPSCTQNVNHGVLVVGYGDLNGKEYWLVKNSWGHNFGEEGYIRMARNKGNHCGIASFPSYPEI

`Cc1[nH]c(-c2ccc(C(F)(F)F)cc2)nc1CN1CCC(n2c(=O)n(CC(N)=O)c3cc(Cl)ccc32)CC1` [Example 31, 2-(6-Chloro-3-{1-[5-methyl-2-(4-trifluoromethyl-phenyl)-1H-imidazol-4-ylmethyl]-piperidin-4-yl}-2-oxo-2,3-dihydro-benzoimidazol-1-yl)-acetamide] showed an IC50 [1] of 310 nM.
With `Cc1[nH]c(-c2ccc(C(F)(F)F)c(Cl)c2)nc1CN1CCC(c2c[nH]c3ncccc23)CC1` [Example 46, 3-{1-[2-(3-Chloro-4-trifluoromethyl-phenyl)-5-methyl-1H-imidazol-4-ylmethyl]-piperidin-4-yl}-1H-pyrrolo[2,3-b]pyridine] the IC50 [1] was 305 nM.
With `Cc1[nH]c(-c2ccc(C(F)(F)F)cc2)nc1CN1CCC(N2C(=O)Cc3cc(Cl)ccc32)CC1` [Example 43, 5-Chloro-1-{1-[5-methyl-2-(4-trifluoromethyl-phenyl)-1H-imidazol-4-ylmethyl]-piperidin-4-yl}-1,3-dihydro-indol-2-one] the IC50 was 445 nM.
In the case of `Cc1[nH]c(-c2ccc(S(=O)(=O)Cc3ccccc3)cc2)nc1CN1CCC(n2c(=O)n(C)c3ccccc32)CC1` [Example 81, 1-Methyl-3-{1-[5-methyl-2-(4-phenylmethanesulfonyl-phenyl)-1H-imidazol-4-ylmethyl]-piperidin-4-yl}-1,3-dihydro-benzoimidazol-2-one], the IC50 [1] is reported as 170 nM.
For `Cc1[nH]c(-c2ccc(S(=O)(=O)CC(C)C)cc2)nc1CN1CCC(n2c(=O)n(C)c3ccccc32)CC1` [Example 79, 1-Methyl-3-(1-{5-methyl-2-[4-(2-methyl-propane-1-sulfonyl)-phenyl]-1H-imidazol-4-ylmethyl}-piperidin-4-yl)-1,3-dihydro-benzoimidazol-2-one], the IC50 [1] was 2870 nM.
In the case of `Cc1[nH]c(-c2ccc(Cl)c(F)c2)nc1CN1CCC(N2Cc3ccccc3NC2=O)CC1` [Example 50, 3-{1-[2-(4-Chloro-3-fluoro-phenyl)-5-methyl-1H-imidazol-4-ylmethyl]-piperidin-4-yl}-3,4-dihydro-1H-quinazolin-2-one], the IC50 [1] is reported as 605 nM.
In the case of `Cc1[nH]c(-c2ccc(Cl)cc2Cl)nc1CN1CCC(N2Cc3ccccc3NC2=O)CC1` [Example 57, 3-{1-[2-(2,4-Dichloro-phenyl)-5-methyl-1H-imidazol-4-ylmethyl]-piperidin-4-yl}-3,4-dihydro-1H-quinazolin-2-one], the IC50 [1] is reported as 995 nM.
In the case of `Cc1[nH]c(-c2ccc(C(F)(F)F)cc2)nc1CN1CCC(n2c(=O)n(CCS(C)(=O)=O)c3cc(Cl)ccc32)CC1` [Example 35, 5-Chloro-3-(2-methanesulfonyl-ethyl)-1-{1-[5-methyl-2-(4-trifluoromethyl-phenyl)-1H-imidazol-4-ylmethyl]-piperidin-4-yl}-1,3-dihydro-benzoimidazol-2-one], the IC50 [1] is reported as 257 nM.
`Cc1[nH]c(-c2ccc(S(=O)(=O)CC(C)C)cc2)nc1CN1CCC(N2Cc3ccccc3NC2=O)CC1` [Example 78, 3-(1-{5-Methyl-2-[4-(2-methyl-propane-1-sulfonyl)-phenyl]-1H-imidazol-4-ylmethyl}-piperidin-4-yl)-3,4-dihydro-1H-quinazolin-2-one] showed an IC50 [1] of 1070 nM.
`CCCc1[nH]c(-c2ccc(C(F)(F)F)cc2)nc1CN1CCC(N2Cc3ccccc3NC2=O)CC1` [Example 62, 3-{1-[5-Propyl-2-(4-trifluoromethyl-phenyl)-1H-imidazol-4-ylmethyl]-piperidin-4-yl}-3,4-dihydro-1H-quinazolin-2-one] showed an IC50 [1] of 300 nM.
With `O=C1Nc2ccc(Br)cc2CN1C1CCN(Cc2cnc(-c3ccc(C(F)(F)F)cc3)[nH]2)CC1` [Example 17, 6-Bromo-3-[1-[[2-[4-(trifluoromethyl)phenyl]-1H-imidazol-5-yl]methyl]-4-piperidyl]-1,4-dihydroquinazolin-2-one] the IC50 [1] was 195 nM.
`Cc1[nH]c(-c2ccc(C(F)(F)F)cc2)nc1CN1CCC(n2c(=O)n(C)c3cc(Cl)ccc32)CC1` [Example 18, 5-Chloro-3-methyl-1-{1-[5-methyl-2-(4-trifluoromethyl-phenyl)-1H-imidazol-4-ylmethyl]-piperidin-4-yl}-1,3-dihydro-benzoimidazol-2-one] was tested, and the IC50 [1] was 195 nM.
For `CC(=O)OCCn1c(=O)n(C2CCN(Cc3nc(-c4ccc(C(F)(F)F)cc4)[nH]c3C)CC2)c2ccc(Cl)cc21` [Example 29, Acetic acid 2-(6-chloro-3-{1-[5-methyl-2-(4-trifluoromethyl-phenyl)-1H-imidazol-4-ylmethyl]-piperidin-4-yl}-2-oxo-2,3-dihydro-benzoimidazol-1-yl)-ethyl ester], the IC50 [1] was 280 nM.
`Cc1[nH]c(-c2ccc(S(C)(=O)=O)cc2)nc1CN1CCC(N2Cc3ccccc3NC2=O)CC1` [Example 74, 3-{1-[2-(4-Methanesulfonyl-phenyl)-5-methyl-1H-imidazol-4-ylmethyl]-piperidin-4-yl}-3,4-dihydro-1H-quinazolin-2-one] was tested, and the IC50 [1] was 94 nM.
Compound `Cc1[nH]c(-c2ccc(Cl)c(Cl)c2)nc1CN1CCC(c2c[nH]c3ncccc23)CC1` [Example 49, 3-{1-[2-(3,4-Dichloro-phenyl)-5-methyl-1H-imidazol-4-ylmethyl]-piperidin-4-yl}-1H-pyrrolo[2,3-b]pyridine] has an IC50 [1] of 1200 nM.
For `Cc1[nH]c(-c2ccc(S(=O)(=O)C(F)(F)F)cc2)nc1CN1CCC(N2Cc3ccccc3NC2=O)CC1` [Example 72, 3-{1-[5-Methyl-2-(4-trifluoromethanesulfonyl-phenyl)-1H-imidazol-4-ylmethyl]-piperidin-4-yl}-3,4-dihydro-1H-quinazolin-2-one], the IC50 [1] was 24 nM.
`Cc1[nH]c(-c2ccc(C(F)(F)F)c(Cl)c2)nc1CN1CCC(N2Cc3ccc(F)cc3NC2=O)CC1` [Example 45, 3-{1-[2-(3-Chloro-4-trifluoromethyl-phenyl)-5-methyl-1H-imidazol-4-ylmethyl]-piperidin-4-yl}-7-fluoro-3,4-dihydro-1H-quinazolin-2-one] gave an IC50 [1] of 110 nM.
For `Cc1[nH]c(-c2ccc(S(=O)(=O)C(F)(F)F)cc2)nc1CN1CCC(n2c(=O)n(C)c3ccccc32)CC1` [Example 75, 1-Methyl-3-{1-[5-methyl-2-(4-trifluoromethanesulfonyl-phenyl)-1H-imidazol-4-ylmethyl]-piperidin-4-yl}-1,3-dihydro-benzoimidazol-2-one], the IC50 [1] was 60 nM.
Compound `CCn1c(=O)n(C2CCN(Cc3nc(-c4ccc(C(F)(F)F)cc4)[nH]c3C)CC2)c2ccc(Cl)cc21` [Example 26, 5-Chloro-3-ethyl-1-{1-[5-methyl-2-(4-trifluoromethyl-phenyl)-1H-imidazol-4-ylmethyl]-piperidin-4-yl}-1,3-dihydro-benzoimidazol-2-one] has an IC50 [1] of 150 nM.
With `Cc1[nH]c(-c2ccc(C(F)(F)F)cc2)nc1CN1CCC(n2c(=O)n(CC(=O)O)c3cc(Cl)ccc32)CC1` [Example 34, (6-Chloro-3-{1-[5-methyl-2-(4-trifluoromethyl-phenyl)-1H-imidazol-4-ylmethyl]-piperidin-4-yl}-2-oxo-2,3-dihydro-benzoimidazol-1-yl)-acetic acid] the IC50 [1] was 930 nM.
`Cc1[nH]c(-c2ccc(C(F)(F)F)c(F)c2)nc1CN1CCC(N2Cc3ccccc3NC2=O)CC1` [Example 47, 3-{1-[2-(3-Fluoro-4-trifluoromethyl-phenyl)-5-methyl-1H-imidazol-4-ylmethyl]-piperidin-4-yl}-3,4-dihydro-1H-quinazolin-2-one] was tested, and the IC50 [1] was 145 nM.
In the case of `CNC(=O)Cn1c(=O)n(C2CCN(Cc3nc(-c4ccc(C(F)(F)F)cc4)[nH]c3C)CC2)c2ccc(Cl)cc21` [Example 32, 2-(6-Chloro-3-{1-[5-methyl-2-(4-trifluoromethyl-phenyl)-1H-imidazol-4-ylmethyl]-piperidin-4-yl}-2-oxo-2,3-dihydro-benzoimidazol-1-yl)-N-methyl-acetamide], the IC50 [1] is reported as 330 nM.
`Cc1[nH]c(-c2ccc(C(F)(F)F)cc2)nc1CN1CCC(c2c[nH]c3ccccc23)CC1` [Example 36, 3-{1-[5-Methyl-2-(4-trifluoromethyl-phenyl)-1H-imidazol-4-ylmethyl]-piperidin-4-yl}-1H-indole] showed an IC50 [1] of 770 nM.
In the case of `Cc1[nH]c(-c2ccc(C(F)(F)F)cc2)nc1CN1CCC(c2c[nH]c3ncccc23)CC1` [Example 38, 3-{1-[5-Methyl-2-(4-trifluoromethyl-phenyl)-1H-imidazol-4-ylmethyl]-piperidin-4-yl}-1H-pyrrolo[2,3-b]pyridine], the IC50 [1] is reported as 470 nM.
`Cc1[nH]c(-c2ccc(C(F)(F)F)cc2Cl)nc1CN1CCC(n2c(=O)n(C)c3ccccc32)CC1` [Example 60, 1-{1-[2-(2-Chloro-4-trifluoromethyl-phenyl)-5-methyl-1H-imidazol-4-ylmethyl]-piperidin-4-yl}-3-methyl-1,3-dihydro-benzoimidazol-2-one] was tested, and the IC50 [1] was 915 nM.
`Cc1c(CN2CCC(n3c(=O)n(C)c4ccccc43)CC2)nc(-c2ccc(C(F)(F)F)cc2)n1C` [Example 70, 1-{1-[1,5-Dimethyl-2-(4-trifluoromethyl-phenyl)-1H-imidazol-4-ylmethyl]-piperidin-4-yl}-3-methyl-1,3-dihydro-benzoimidazol-2-one] was tested, and the IC50 [1] was 245 nM.
`Cc1[nH]c(-c2ccc(C(F)(F)F)cc2)nc1CN1CCC(n2cnc3ccccc32)CC1` [Example 3, 1-{1-[5-Methyl-2-(4-trifluoromethyl-phenyl)-1H-imidazol-4-ylmethyl]-piperidin-4-yl}-1H-benzoimidazole] was tested, and the IC50 [1] was 450 nM.
With `Cc1[nH]c(-c2ccc(C(F)(F)F)cc2)nc1CN1CCC(n2c(=O)[nH]c3ccc(N4CCOCC4)cc32)CC1` [Example 10, 1-{1-[5-Methyl-2-(4-trifluoromethyl-phenyl)-1H-imidazol-4-ylmethyl]-piperidin-4-yl}-6-morpholin-4-yl-1,3-dihydro-benzoimidazol-2-one] the IC50 [1] was 280 nM.
